The target of data set [1] is T1, recombinant DNA-binding domain of human FOXO3 (residues 156–269, FOXO3-DBD) (Homo sapiens, UniProt O43524).
T1 construct: DNA encoding human FOXO3-DBD (residues 156–269); GST (N, cleaved yes); made in house; host or cells: E. coli BL21(DE3)
Nature of the data set: Fluorescence polarization (FP) assay of FOXO3-DBD binding to FAM-labeled IRE dsDNA. The settings on record: compound 1 μM; 125 nM FOXO3-DBD, 25 nM FAM-dsDNA.
From the text: The FOXO3 inhibition potency of the phenylpyrimidinylguanidine derivatives was first examined in a fluorescence polarization (FP) assay using the recombinant DNA-binding domain of human FOXO3 (residues 156–269, denoted as FOXO3-DBD) and FAM-labeled dsDNA containing the insulin-response element (IRE) consensus motif (Figure S1).
The final concentration of DMSO in all mixtures was adjusted to 5% (v/v). Positive (only assay buffer and FAM-labeled oligonucleotide) and negative (FOXO3-DBD and FAM-labeled oligonucleotide) controls were analyzed on each plate. Milli polarization values (mP) were measured at an excitation wavelength of 485 nm and an emission wavelength of 530 nm.

Data set [2] in a line: Estimation of compound solubility in water (saturated solution, UV-vis). It counts as physicochemical. The settings on record: aqueous buffer, thermodynamic from solid; 20 mM phosphate (pH 6.5) and 50 mM KCl buffer at 23 °C. As to the method:
To estimate the solubility, we prepared saturated solutions of the compounds by adding 5 mg of each selected compound to 700 μL of 20 mM phosphate buffer (pH 6.5) containing 50 mM KCl. After 48 h of gentle agitation at room temperature (RT), the solutions were spun down, and the supernatant was filtered through 0.2 μm of SPARTAN 13/0.2 RC filter units (Merck KgaA, Darmstadt, Germany) and diluted 100–200× in the same phosphate buffer. The diluted solutions were transferred into the quartz cuvette, recording UV–vis absorption spectra in the range from 200 to 600 nm on a UV-1800 UV/visible scanning spectrophotometer (Shimadzu, Kyoto, Japan) at room temperature. The compound concentrations were estimated by the single point calibration using the absorption at wavelengths higher than 240 nm outside of DMSO absorption of 2000× diluted 50 mM DMSO-dissolved stock solution in phosphate buffer.

In data set [3] the test system is FOXO3. Further details: method as in PMID 31591479, PMID 31789593. To be noted: inhibit the transcriptional program of FOXO3; cited from earlier work.
The test system of data set [4] is FOXO3-induced apoptotic cell death in SH-EP/FOXO3 neuroblastoma cells. Nature of the data set: Resazurin early cell death evaluation assay. It counts as cell-based. To be noted: for IC50: Neuroblastoma cell, 100 nM 4OHT, 24 h, approximate, toxicity prevented accurate determination, read-out: IC50, inhibition of FOXO3-induced cell death; for IC50 / concentration above which the compound is toxic (spontaneous cell death): SH-EP/FOXO3 cells. As to the method:
Moreover, we also attempted to determine the IC50 values of 5ci, 5cj, and 5db using a resazurin early cell death evaluation assay in cells expressing a conditional FOXO3 allele that triggers apoptotic cell death upon activation.
Neuroblastoma cells SH-EP/FOXO3 were seeded into 96-well plates and treated with concentrations 0.05, 0.1, 0.2, 0.39, 0.78, 1.56, 3.125, 6.25, 12.5, 18.75, and 25 μM of 5ca and its derivatives 30 min before activating ectopic FOXO3 by 100 nM 4OHT. For 5ca derivatives, concentrations above 3.125 μM had to be excluded from the analysis due to spontaneous cell death induction. Resazurin salt (Sigma-Aldrich s.r.o., St. Louis, Missouri) was diluted to a final concentration of 0.01% (wt/vol), and 20 μL of this dilution was added to 200 μL of the cell culture in each well 24 h after FOXO3 activation. Resazurin is reduced in viable cells to red-fluorescent resoflurin, which was quantified in a Hidex Chameleon—Multilabel Microplate Reader (Hidex, Turku, Finland) at filter settings 544 nm Ex/616 nm Em.

Data set [5] deals with T2, FOXO3-DBD (Homo sapiens, UniProt O43524).
T2 construct: DNA encoding human FOXO3-DBD (residues 156–269); GST (N, cleaved yes); made in house; host or cells: E. coli BL21(DE3)
Nature of the data set: NMR (1H STD and 1H-15N HSQC titration) of compound binding to FOXO3-DBD. The settings on record: 15 μM FOXO3-DBD, 1 mM compound, pH 6.5, 298 K. The method, then: STD experiment was performed at 298 K on a Bruker Avance III HD 850 MHz spectrometer (Bruker, Billerica, Massachusetts) equipped with a ^13C/^1H/^15N cryoprobe. The 550 μL sample contained 15 μM FOXO3-DBD and 1 mM 5cj in 20 mM phosphate buffer (pH 6.5) supplemented by 50 mM KCl and 10% ^2H2O. ^1H STD NMR was performed using a standard “stddiffesgp” pulse sequence with excitation sculpting and pulse-field gradients for water suppression. On-resonance irradiation was done at −0.54 ppm and off-resonance irradiation at 30 ppm, using a 50 ms shaped Eburp2.1000 pulse of power 40 dB for a saturation time of 3 s. The difference spectra were obtained by subtracting the on-resonance spectrum from the off-resonance spectrum. The spectra were analyzed using TopSpin software (v3.6).
2D ^1H–^15N HSQC spectra were acquired on both Bruker Avance III HD 850 MHz and Bruker Avance III 600 MHz (Bruker, Billerica, Massachusetts) spectrometers equipped with a ^13C/^1H/^15N cryoprobe. All HSQC experiments were measured at 298 K in Shigemi NMR tubes (Shigemi Co., Ltd., Tokyo, Japan) containing 350 μL of sample in 100 mM phosphate buffer (pH 6.5) supplemented with 50 mM KCl and 10% ^2H2O. […] All spectra were processed in TopSpin software (v3.6) and evaluated in Sparky software (v3.1).[43] CSP values obtained from 2D ^1H–^15N HSQC experiments were calculated using the following formula[44] […]

In data set [6] the test system is FOXO3 binding to the promoter region of DEPP1 in SH-EP/FOXO3 cells. As to the kind of experiment: DEPP1-luciferase reporter assay of FOXO3 transcriptional activity. It is filed as cell-based. The method, then: (§1) The ability of these compounds to inhibit FOXO3 transcriptional activity was further examined by assessing their effect on FOXO3 binding to the promoter region of decidual protein induced by progesterone 1 (DEPP1) after transfecting a DEPP1-luciferase reporter plasmid into SH-EP neuroblastoma cells stably expressing a 4-hydroxy-tamoxifen (4OHT)-regulated FOXO3(A3)ERtm transgene. […] In parallel, the toxicity of the compounds was tested by assessing their effect on endogenous DEPP1 and actin promoters in SH-EP cells.
Transcriptional activation of the DEPP1 promoter by conditional FOXO3 was assessed after transfection of a DEPP1-luciferase reporter plasmid pGS c10orf10 Prom wt (DEPP1-LUC)[20] into SH-EP/FOXO3 cells using the JetPrime reagent (Polyplus, Berkeley). After 24 h of transfection, mTFP fluorescent protein expression from a cotransfected expression vector was assessed by live cell fluorescence microscopy to verify equal transfection rates before seeding cells into 24-well plates. After 48 h of transfection, the cells were pretreated with indicated concentrations of each compound (30 min) before adding 100 nM 4-hydroxy-tamoxifen (4OHT) for 3 h to activate ectopic FOXO3. Firefly-luciferase was analyzed using the Luciferase Assay System (Promega, Madison). Luminescence intensity was measured in a Hidex Chameleon—Multilabel Microplate Reader (Hidex, Turku, Finland).

Data set [7] has as its system endogenous DEPP1 and actin promoters in SH-EP cells. As to the kind of experiment: Toxicity control: endogenous DEPP1 and actin promoter luciferase reporters. It is filed as cell-based. To be noted: 0.78 μM, SH-EP cells. As to the method:
as §1
For this purpose, 2 × 10^6 SH-EP cells were transfected with either a DEPP1-LUC-reporter plasmid or an actin-LUC reporter plasmid using JetPrime reagent (Polyplus, Berkeley). Actin-LUC was constructed by inserting a 1.3 kb fragment of the chicken β actin promoter into pGL3-luc reporter vector (Promega, Madison). After 24 h of transfection, the cells were seeded into 24-well plates. After another 24 h, the cells were pretreated with indicated concentrations of compound for 3.5 h. Firefly-luciferase was analyzed using the Luciferase Assay System (Promega, Madison). Luminescence intensity was measured in a Hidex Chameleon—Multilabel Microplate Reader (Hidex, Turku, Finland).

Structures are written as SMILES. In brackets after ≈: the same amount, converted by molar mass.

T2 sequence (O43524 156-269): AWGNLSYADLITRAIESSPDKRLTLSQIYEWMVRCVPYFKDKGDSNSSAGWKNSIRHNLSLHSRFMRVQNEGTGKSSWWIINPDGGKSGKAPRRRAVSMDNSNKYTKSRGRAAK
T1 sequence (O43524 156-269): as above

On to `CCCOc1ccc(NC(=N)Nc2nc(C)cc(C)n2)cc1` [5ca, 1-(4,6-Dimethylpyrimidin-2-yl)-3-(4-propoxyphenyl)guanidine], for which, in data set [1], the “reduction of FOXO3-DBD binding to FAM-IRE dsDNA” value is “approximately 20%”. Further, the solubility at 48 h in data set [2] is 2 mM (≈ 599 µg/mL). Moreover, in data set [3], the “concentration range of FOXO3 inhibition in cancer cells” value was “low micromolar range”. Moreover, in data set [4], the IC50 was approximately 8 µM and the “concentration above which the compound is toxic (spontaneous cell death)” value is given as “higher than 25 μM”.

Take `Cc1cc(C)nc(NC(=N)NCCc2ccccc2)n1` [5cj, 1-(4,6-Dimethylpyrimidin-2-yl)-3-phenethylguanidine]: the “1H STD NMR signals with FOXO3-DBD” value in data set [5] is “STD signals were detected”. For the same molecule, the solubility at 48 h in data set [2] is 13 mM (≈ 3500 µg/mL). In addition, the “potency in blocking FOXO3 binding to the promoter region of DEPP1” value in data set [6] (25 and 12.5 μM compound) was “the most potent compounds”. For the same molecule, in data set [6] (lower concentrations, down to 0.78 μM), the “efficiency of blocking FOXO3 binding to the promoter region of DEPP1” value is “more efficiently than 5cg, 5da, and 5dc”. Also, the “inhibition of FOXO3-mediated transcription” value in data set [6] (lowest concentration tested, 0.78 μM) is listed as “significantly inhibited”. In addition, the “inhibitory potency on target gene activation by FOXO3 (in words)” value in data set [6] (summary of the reporter data, Figures 2, S2, S3) is given as “highest inhibitory potency”. In data set [4], the IC50 was approximately 1 µM and the “concentration above which the compound is toxic (spontaneous cell death)” value is “higher than 4 μM”. Also, the “fold lower IC50 than that of 5ca” value in data set [4] (resazurin assay, ratio to 5ca IC50 of ∼8 μM) is reported as 8–16 ×. For the same molecule, in data set [7], the “effect on endogenous DEPP1 and actin promoters (toxicity markers)” value is recorded as “without any effect”.

(Values after publication PMC9521028, “Lengthening the Guanidine–Aryl Linker of Phenylpyrimidinylguanidines Increases Their Potency as Inhibitors of FOXO3-Induced Gene Transcription” (ACS Omega, 2022).)
